As usually defined, the Ki is the dissociation constant of the complex between target and ligand, obtained from inhibition or displacement.

Ki and Intrinsic activity data for eleven molecules are collected here from ChEMBL document CHEMBL1143662 (Bioorg Med Chem, 2007).

Assay [1] deals with T1, Melatonin receptor type 1A (Homo sapiens, UniProt P48039). In words: Displacement of 2-[125I]iodomelatonin from human cloned MT1 receptor expressed in […] cells. The assay is classed as cell-based.
Assay [2] addresses T1, Melatonin receptor type 1A. In words: Intrinsic activity at human cloned MT1 receptor expressed in […] cells by [35S]GTP-gamma-S binding assay relative to melatonin. It counts as functional, cell-based. For orientation: GTPγS is a poorly hydrolysed GTP analogue; its binding reports G protein activation.
The target of assay [3] is T2, Melatonin receptor type 1B (Homo sapiens, UniProt P49286).
T2 sequence (P49286 whole entry): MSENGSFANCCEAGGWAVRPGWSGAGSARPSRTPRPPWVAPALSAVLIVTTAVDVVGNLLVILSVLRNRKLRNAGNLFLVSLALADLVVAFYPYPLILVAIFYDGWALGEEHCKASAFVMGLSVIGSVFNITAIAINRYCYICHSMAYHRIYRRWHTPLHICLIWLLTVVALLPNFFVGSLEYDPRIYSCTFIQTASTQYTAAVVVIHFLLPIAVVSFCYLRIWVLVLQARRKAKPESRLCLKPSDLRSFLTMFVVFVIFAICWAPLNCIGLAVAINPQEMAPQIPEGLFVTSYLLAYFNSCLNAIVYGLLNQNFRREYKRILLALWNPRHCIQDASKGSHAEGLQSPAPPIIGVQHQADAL
In words: Displacement of 2-[125I]iodomelatonin from human cloned MT2 receptor expressed in […] cells. It counts as cell-based.

For assay [4], the target named is T3, Melatonin receptor type 1B (Homo sapiens) (UniProt P49286).
T3 sequence (whole entry): T2 sequence (P49286 whole entry)
In words: Intrinsic activity at human cloned MT2 receptor expressed in […] cells by [35S]GTP-gamma-S binding assay relative to melatonin. The assay is classed as functional, cell-based.

T1 sequence (P48039 whole entry): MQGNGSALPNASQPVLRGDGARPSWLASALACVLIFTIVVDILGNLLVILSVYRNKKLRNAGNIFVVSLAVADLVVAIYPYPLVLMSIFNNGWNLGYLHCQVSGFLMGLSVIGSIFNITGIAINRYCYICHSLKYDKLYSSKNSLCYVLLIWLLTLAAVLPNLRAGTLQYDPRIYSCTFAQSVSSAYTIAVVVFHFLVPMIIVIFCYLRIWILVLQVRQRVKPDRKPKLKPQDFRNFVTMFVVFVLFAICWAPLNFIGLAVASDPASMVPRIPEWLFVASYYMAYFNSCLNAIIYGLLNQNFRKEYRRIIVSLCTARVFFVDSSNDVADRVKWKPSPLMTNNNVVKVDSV

As for `COc1ccc2[nH]c(C(=O)OCCCCCCCCCOC(=O)c3ccccc3)c(CCNC(C)=O)c2c1`, the Ki was found to be 0.083 µM in assay [1] and 0.02 µM in assay [3]. In addition, the Intrinsic activity was found to be 0.75 in assay [2] and 0.38 in assay [4].

As to `COc1ccc2[nH]c(C(=O)OCCCCCCCOC(=O)c3[nH]c4ccc(OC)cc4c3CCNC(C)=O)c(CCNC(C)=O)c2c1`, the Ki in assay [1] was determined as 0.215 µM; in assay [3] it was 0.065 µM. Also, the Intrinsic activity in assay [2] was determined as 0.35; in assay [4], 0.08.

As to `COc1ccc2[nH]c(C(=O)OCCCCCCCCOC(=O)c3[nH]c4ccc(OC)cc4c3CCNC(C)=O)c(CCNC(C)=O)c2c1`, the values for the Ki in assay [1] and in assay [3] were 0.00791 µM and 0.00792 µM, respectively. Also, the Intrinsic activity in assay [2] came out at 1; in assay [4], 0.9.

Consider `CCCCCOC(=O)c1[nH]c2ccc(OC)cc2c1CCNC(C)=O`, for which the Ki in assay [1] came out at 0.0701 µM; in assay [3] it was 0.0048 µM. In addition, the Intrinsic activity in assay [2] stood at 0.06; in assay [4], 0.23.

Consider `COc1ccc2[nH]c(C(=O)OCCCCCCCCCCCCOC(=O)c3[nH]c4ccc(OC)cc4c3CCNC(C)=O)c(CCNC(C)=O)c2c1`, for which the Ki in assay [1] amounted to 0.0254 µM; in assay [3] it was 0.044 µM. Besides, the Intrinsic activity in assay [2] stood at 0.72; in assay [4], 0.64.

`COc1ccc2[nH]c(C(=O)OCCCOC(=O)c3[nH]c4ccc(OC)cc4c3CCNC(C)=O)c(CCNC(C)=O)c2c1`: the results for the Ki in assay [1] and in assay [3] were 0.0095 µM and 0.0143 µM, respectively. The Intrinsic activity in assay [2] was 0.77; in assay [4], 0.8.

Regarding `COc1ccc2[nH]cc(CCNC(=O)CCCCCC(=O)NCCc3c[nH]c4ccc(OC)cc34)c2c1`, the Ki in assay [1] is 6.47 µM; in assay [3], 7.29 µM. The Intrinsic activity in assay [2] was 0.35; in assay [4], 0.26.

Consider `COc1ccc2[nH]c(C(=O)OCCCCCOC(=O)c3[nH]c4ccc(OC)cc4c3CCNC(C)=O)c(CCNC(C)=O)c2c1`, for which the Ki in assay [1] was 0.0201 µM; in assay [3], 0.0624 µM. For the same molecule, the Intrinsic activity in assay [2] is 1; in assay [4], 0.93.

On to `COc1ccc2[nH]cc(CCNC(=O)CCCCCCCCC(=O)NCCc3c[nH]c4ccc(OC)cc34)c2c1`, for which the Ki came out at 0.387 µM in assay [1] and 0.573 µM in assay [3]. The Intrinsic activity came out at 0.81 in assay [2] and 0.79 in assay [4].

For the molecule `COc1ccc2[nH]c(C(=O)OCCCCCCCCCOC(=O)c3[nH]c4ccc(OC)cc4c3CCNC(C)=O)c(CCNC(C)=O)c2c1`, the Ki in assay [1] is 0.0598 µM; in assay [3], 0.00775 µM. In addition, the results for the Intrinsic activity in assay [2] and in assay [4] were 0.33 and -0.17, respectively.

With `COc1ccc2[nH]c(C(=O)OCCCCCCCCCCOC(=O)c3[nH]c4ccc(OC)cc4c3CCNC(C)=O)c(CCNC(C)=O)c2c1`, the Ki in assay [1] came to 0.0242 µM; in assay [3], 0.0154 µM. Also, the values for the Intrinsic activity in assay [2] and in assay [4] were 0.79 and 0.65, respectively.
